Reference: ChEMBL document CHEMBL1201862, “PubChem BioAssay data set” (2004)
Activity calls are given as the source filed them.

Key:
[1] = A Cell Based Secondary Assay To Explore Cytotoxicity of Compounds that Sensitize Mycobacterium Tuberculosis to Beta-Lactam Antibiotics.; type: functional
Aminopeptidase N = target: T1, Aminopeptidase N (Plasmodium falciparum FcB1/Columbia, UniProt O96935); test: P. falciparum M1AAP inhibitors, biochemical, fluorogenic H-Leu-NHMec substrate, 1536-well (AID 1445); parameters: species or system Plasmodium falciparum 3D7, 3D7
T1 sequence (O96935 whole entry): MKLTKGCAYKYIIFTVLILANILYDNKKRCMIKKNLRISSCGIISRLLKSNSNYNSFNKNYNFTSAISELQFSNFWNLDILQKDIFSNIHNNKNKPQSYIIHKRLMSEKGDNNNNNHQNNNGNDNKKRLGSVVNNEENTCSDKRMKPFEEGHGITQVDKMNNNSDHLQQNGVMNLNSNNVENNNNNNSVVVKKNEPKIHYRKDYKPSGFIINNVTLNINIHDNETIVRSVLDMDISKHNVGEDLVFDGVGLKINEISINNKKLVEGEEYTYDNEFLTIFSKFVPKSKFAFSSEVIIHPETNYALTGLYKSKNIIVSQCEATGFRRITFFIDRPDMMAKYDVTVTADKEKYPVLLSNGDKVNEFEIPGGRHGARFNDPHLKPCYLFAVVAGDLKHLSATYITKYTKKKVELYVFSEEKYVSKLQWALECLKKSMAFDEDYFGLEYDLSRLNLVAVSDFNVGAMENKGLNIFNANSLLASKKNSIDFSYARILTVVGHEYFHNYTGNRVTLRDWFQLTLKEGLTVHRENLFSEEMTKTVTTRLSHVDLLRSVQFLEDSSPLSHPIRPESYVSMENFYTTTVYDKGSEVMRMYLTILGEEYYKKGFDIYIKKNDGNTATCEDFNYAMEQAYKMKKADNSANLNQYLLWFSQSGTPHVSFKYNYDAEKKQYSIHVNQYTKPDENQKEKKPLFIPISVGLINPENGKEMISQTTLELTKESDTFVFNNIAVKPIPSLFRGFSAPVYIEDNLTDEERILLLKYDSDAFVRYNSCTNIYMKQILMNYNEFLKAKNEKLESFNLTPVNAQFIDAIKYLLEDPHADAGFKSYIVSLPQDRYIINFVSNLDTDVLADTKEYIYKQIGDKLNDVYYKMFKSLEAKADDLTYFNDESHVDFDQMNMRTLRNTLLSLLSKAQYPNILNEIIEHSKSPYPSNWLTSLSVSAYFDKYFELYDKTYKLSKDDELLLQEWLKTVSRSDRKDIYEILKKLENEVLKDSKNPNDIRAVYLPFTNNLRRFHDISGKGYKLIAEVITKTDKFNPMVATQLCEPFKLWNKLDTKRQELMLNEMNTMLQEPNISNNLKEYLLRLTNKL

Aspartyl aminopeptidase = target: T2, Aspartyl aminopeptidase (Plasmodium falciparum 3D7, UniProt Q8I2J3); test: Counterscreen for inhibitors of M1 and M17 aminopeptidases: QFRET-based biochemical high throughput dose response assay for inhibitors of the Plasmodium falciparum M18 Aspartyl Aminopeptidase (PFM18AAP). [Related PubChem assays: 1619 (Screening assay (M17LAP inhibitors).), 1445 (Screening assay (M1AAP inhibitors).)]
T2 sequence (Q8I2J3 whole entry): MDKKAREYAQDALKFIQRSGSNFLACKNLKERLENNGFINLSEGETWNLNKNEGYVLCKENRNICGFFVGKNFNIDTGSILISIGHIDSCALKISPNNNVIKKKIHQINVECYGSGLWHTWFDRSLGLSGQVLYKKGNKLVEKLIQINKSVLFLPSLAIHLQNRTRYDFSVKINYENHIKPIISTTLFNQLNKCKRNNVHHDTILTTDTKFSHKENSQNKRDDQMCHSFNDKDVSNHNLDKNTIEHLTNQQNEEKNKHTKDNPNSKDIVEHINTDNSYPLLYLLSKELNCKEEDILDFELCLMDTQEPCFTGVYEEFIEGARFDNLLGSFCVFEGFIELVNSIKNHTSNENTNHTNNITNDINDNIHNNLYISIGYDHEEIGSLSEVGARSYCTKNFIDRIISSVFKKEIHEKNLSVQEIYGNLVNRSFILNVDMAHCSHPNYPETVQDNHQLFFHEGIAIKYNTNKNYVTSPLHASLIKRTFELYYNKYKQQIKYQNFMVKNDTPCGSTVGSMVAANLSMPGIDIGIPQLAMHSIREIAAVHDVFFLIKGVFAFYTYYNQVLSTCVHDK

Procathepsin L = Procathepsin L (Homo sapiens, UniProt P07711); test: cathepsin L inhibitors, dose response, counter-screen for M1/M17 aminopeptidase inhibitor project, biochemical, QFRET, 1536-well (AID 2214)
[2] = HEp-2 cell cytotoxicity, dose response, cytotoxicity control for RSV inhibitor project, HTS (AID 2410); type: functional; conditions: human respiratory syncytial virus
[3] = target: T3, High affinity choline transporter 1 (Homo sapiens, UniProt Q9GZV3); test: CHT inhibitors, dose response, cell-based, 5-point CRC, membrane potential dye (AID 504840); type: functional
T3 sequence (Q9GZV3 whole entry): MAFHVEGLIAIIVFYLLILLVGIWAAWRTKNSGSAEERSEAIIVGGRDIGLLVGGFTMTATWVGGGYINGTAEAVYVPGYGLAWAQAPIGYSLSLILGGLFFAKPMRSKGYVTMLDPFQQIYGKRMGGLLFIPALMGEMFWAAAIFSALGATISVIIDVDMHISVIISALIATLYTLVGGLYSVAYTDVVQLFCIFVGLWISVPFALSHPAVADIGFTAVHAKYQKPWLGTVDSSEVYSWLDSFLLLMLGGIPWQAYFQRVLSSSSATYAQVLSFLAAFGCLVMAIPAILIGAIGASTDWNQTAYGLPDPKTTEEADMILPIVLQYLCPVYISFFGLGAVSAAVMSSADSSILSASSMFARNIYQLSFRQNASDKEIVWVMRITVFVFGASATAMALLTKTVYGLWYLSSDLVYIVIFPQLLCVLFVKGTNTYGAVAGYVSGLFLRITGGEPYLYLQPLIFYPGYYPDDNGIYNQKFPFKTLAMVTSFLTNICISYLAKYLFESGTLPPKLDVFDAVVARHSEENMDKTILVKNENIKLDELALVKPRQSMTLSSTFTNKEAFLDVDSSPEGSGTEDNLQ

Protein RecA = target: T4, Protein RecA (Mycobacterium tuberculosis, UniProt P9WHJ3); test: Fluorescence Cell-Free Homogeneous Dose Retest to Identify Inhibitors of RecA-Intein Splicing Activity. [Related pubchem assays (depositor defined):AID2097, AID2223, AID489010, AID492950]; type: functional
T4 sequence (P9WHJ3 whole entry): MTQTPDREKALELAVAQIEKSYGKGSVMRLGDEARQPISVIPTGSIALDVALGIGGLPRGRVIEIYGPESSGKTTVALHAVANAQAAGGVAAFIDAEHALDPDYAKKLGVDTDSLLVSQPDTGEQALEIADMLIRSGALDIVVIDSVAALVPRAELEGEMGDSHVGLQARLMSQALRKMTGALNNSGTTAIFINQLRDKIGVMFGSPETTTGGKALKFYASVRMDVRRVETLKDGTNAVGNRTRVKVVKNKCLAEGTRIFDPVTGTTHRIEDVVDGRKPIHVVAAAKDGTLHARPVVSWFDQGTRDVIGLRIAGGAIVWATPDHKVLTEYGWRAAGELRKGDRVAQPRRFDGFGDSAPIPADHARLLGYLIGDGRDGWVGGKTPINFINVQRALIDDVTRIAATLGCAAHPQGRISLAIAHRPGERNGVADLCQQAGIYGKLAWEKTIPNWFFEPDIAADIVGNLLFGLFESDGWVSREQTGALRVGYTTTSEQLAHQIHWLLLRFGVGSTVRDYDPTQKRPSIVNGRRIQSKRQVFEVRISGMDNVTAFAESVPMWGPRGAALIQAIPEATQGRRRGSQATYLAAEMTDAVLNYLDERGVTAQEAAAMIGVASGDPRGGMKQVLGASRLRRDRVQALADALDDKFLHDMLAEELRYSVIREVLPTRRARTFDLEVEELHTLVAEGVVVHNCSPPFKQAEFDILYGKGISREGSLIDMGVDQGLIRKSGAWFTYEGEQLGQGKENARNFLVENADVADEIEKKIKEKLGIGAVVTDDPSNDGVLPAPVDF

Vero [4] = test: host cell cytotoxicity of antiviral hits, dose response, cytotoxicity control for West Nile virus antiviral project, secondary assay (AID 1650); type: functional; conditions: Chlorocebus sabaeus
[5] = control 3'UTR Renilla luciferase suppression, dose response, counter-screen for Shn3 inhibitor project, cell-based, Clone20-Shn3RL, cherry-picked (AID 624133); type: functional
[6] = target: T5, Replicative DNA helicase DnaB (Mycobacterium tuberculosis, UniProt P9WMR3); test: DnaB intein splicing inhibitors, dose response, biochemical, cell-free fluorescence (AID 449749); type: functional
T5 sequence (P9WMR3 whole entry): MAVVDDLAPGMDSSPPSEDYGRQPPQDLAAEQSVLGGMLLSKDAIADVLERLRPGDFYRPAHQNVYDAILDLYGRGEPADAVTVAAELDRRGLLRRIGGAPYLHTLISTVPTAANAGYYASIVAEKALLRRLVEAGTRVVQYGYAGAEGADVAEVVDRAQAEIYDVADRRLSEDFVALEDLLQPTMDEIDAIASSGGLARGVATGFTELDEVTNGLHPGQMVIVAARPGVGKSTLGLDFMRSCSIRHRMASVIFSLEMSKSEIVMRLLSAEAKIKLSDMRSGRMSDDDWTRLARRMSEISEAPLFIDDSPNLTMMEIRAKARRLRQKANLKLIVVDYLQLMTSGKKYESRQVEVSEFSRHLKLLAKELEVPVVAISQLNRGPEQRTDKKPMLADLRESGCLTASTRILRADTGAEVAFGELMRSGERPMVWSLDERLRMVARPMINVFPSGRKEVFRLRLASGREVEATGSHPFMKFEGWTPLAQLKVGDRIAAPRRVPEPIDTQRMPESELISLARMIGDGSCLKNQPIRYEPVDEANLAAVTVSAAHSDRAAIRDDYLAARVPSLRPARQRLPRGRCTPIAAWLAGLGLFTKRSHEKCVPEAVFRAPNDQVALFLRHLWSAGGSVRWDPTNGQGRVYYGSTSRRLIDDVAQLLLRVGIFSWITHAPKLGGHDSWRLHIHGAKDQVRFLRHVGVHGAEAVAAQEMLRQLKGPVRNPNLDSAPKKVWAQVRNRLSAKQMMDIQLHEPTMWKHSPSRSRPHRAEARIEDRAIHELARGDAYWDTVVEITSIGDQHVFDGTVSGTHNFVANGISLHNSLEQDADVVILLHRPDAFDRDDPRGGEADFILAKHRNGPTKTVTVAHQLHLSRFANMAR

Vero [7] = test: cells; type: functional; conditions: Chlorocebus sabaeus
[8] = Shn3 3'UTR reporter inhibitors, dose response, cell-based, Clone20 osteoblasts, firefly luciferase, cherry-picked (AID 624132); type: functional;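 also: firefly luciferase luminescence from reporter carrying the Shn3 3'UTR in osteoblasts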
[9] = HepG2 cell cytotoxicity, dose response, cytotoxicity control for Shn3 inhibitor project, CellTiter-Glo, cherry-picked (AID 624134); type: functional, cell-based
Leucine aminopeptidase = target: T6, Leucine aminopeptidase (Plasmodium falciparum 3D7, UniProt Q8IL11); test: P. falciparum M17LAP inhibitors, primary screen, biochemical, fluorogenic H-Leu-NHMec substrate, 1536-well (AID 1619); type: functional
T6 sequence (Q8IL11 whole entry): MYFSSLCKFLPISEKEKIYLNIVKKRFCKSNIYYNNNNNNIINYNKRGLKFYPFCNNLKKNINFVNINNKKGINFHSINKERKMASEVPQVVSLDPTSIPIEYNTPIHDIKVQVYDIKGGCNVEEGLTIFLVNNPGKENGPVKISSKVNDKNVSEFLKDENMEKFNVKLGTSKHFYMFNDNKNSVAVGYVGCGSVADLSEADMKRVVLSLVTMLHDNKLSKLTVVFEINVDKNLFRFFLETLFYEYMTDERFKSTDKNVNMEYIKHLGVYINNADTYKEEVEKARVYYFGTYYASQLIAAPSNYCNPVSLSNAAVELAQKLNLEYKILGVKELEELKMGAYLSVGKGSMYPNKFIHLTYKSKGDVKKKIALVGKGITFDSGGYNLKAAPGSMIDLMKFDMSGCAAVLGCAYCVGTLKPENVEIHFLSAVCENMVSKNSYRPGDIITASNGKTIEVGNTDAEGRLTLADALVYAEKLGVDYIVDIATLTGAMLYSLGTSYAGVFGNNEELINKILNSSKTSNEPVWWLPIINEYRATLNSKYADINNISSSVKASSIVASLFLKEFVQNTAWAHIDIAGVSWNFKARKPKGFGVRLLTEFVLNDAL

[10] = target: Peroxisome proliferator-activated receptor gamma/Nuclear receptor coactivator 2 (Homo sapiens, UniProt P37231); type: functional;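 also: agonist potency for raising coactivator recruitment to the receptor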
[11] = target: Peroxisome proliferator-activated receptor gamma/Nuclear receptor coactivator 1 (Homo sapiens, UniProt P37231); type: functional;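 also: agonist potency as compounds enhance coactivator SRC-1 recruitment to PPARgamma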
[12] = target: Peroxisome proliferator-activated receptor gamma/Nuclear receptor coactivator 3 (Homo sapiens, UniProt P37231); type: functional;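 also: agonist potency for raising coactivator recruitment to the receptor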
Genome polyprotein = Genome polyprotein (dengue virus type 2, UniProt P29990); test: Dengue-2 NS5 methyltransferase inhibitors, primary screen, biochemical, confirmation dose response (AID 588689); type: functional
Genome polyprotein, sequence (P29990 2492-3391 limits assumed): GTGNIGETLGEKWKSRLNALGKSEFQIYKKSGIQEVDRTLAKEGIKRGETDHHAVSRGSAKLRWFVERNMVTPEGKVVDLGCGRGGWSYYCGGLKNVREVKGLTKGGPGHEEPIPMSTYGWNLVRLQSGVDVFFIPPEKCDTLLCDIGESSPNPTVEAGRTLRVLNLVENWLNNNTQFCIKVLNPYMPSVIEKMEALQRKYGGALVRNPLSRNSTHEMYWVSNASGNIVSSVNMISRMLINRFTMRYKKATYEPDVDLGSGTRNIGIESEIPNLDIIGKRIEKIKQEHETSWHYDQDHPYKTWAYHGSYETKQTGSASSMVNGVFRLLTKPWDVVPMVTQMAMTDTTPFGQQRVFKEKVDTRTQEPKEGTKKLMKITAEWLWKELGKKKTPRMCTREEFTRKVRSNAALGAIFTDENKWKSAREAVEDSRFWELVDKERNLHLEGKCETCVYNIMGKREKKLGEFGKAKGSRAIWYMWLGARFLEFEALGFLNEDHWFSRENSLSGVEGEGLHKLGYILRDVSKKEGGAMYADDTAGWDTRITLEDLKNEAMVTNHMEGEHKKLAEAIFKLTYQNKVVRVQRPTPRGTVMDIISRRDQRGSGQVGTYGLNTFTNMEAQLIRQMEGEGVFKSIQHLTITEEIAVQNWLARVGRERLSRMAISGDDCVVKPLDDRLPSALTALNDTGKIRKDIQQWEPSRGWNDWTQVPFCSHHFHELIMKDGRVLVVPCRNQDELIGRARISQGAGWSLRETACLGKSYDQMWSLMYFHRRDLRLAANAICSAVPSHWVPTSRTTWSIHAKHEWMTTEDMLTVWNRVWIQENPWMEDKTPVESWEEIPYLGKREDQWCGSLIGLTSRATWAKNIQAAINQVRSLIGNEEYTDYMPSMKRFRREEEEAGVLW

Procathepsin L, sequence (P07711 whole entry): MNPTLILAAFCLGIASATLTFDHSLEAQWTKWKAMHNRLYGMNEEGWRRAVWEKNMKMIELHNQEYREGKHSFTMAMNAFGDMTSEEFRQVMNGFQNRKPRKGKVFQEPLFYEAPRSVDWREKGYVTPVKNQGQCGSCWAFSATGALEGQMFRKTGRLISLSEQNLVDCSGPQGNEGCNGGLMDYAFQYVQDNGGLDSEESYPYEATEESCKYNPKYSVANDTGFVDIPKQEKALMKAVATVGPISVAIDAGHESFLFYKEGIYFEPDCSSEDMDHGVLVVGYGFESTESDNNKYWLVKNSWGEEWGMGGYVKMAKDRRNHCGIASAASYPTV
Peroxisome proliferator-activated receptor gamma/Nuclear receptor coactivator 2, sequence (P37231 whole entry): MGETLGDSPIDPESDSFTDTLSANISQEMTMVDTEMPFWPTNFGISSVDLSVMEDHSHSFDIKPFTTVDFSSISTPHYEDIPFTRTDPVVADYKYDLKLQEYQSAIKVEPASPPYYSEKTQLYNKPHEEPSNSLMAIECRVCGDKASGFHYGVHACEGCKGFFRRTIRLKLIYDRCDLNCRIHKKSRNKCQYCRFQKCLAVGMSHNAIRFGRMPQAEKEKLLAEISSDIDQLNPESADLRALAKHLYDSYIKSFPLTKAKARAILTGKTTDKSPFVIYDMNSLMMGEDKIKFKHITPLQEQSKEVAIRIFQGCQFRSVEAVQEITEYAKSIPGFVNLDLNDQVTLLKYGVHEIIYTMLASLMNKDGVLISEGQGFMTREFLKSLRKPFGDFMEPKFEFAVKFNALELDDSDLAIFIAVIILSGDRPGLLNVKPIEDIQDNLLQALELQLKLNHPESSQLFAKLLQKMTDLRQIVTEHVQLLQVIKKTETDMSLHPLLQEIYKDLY
Peroxisome proliferator-activated receptor gamma/Nuclear receptor coactivator 2, sequence (Q15596 whole entry, further chain): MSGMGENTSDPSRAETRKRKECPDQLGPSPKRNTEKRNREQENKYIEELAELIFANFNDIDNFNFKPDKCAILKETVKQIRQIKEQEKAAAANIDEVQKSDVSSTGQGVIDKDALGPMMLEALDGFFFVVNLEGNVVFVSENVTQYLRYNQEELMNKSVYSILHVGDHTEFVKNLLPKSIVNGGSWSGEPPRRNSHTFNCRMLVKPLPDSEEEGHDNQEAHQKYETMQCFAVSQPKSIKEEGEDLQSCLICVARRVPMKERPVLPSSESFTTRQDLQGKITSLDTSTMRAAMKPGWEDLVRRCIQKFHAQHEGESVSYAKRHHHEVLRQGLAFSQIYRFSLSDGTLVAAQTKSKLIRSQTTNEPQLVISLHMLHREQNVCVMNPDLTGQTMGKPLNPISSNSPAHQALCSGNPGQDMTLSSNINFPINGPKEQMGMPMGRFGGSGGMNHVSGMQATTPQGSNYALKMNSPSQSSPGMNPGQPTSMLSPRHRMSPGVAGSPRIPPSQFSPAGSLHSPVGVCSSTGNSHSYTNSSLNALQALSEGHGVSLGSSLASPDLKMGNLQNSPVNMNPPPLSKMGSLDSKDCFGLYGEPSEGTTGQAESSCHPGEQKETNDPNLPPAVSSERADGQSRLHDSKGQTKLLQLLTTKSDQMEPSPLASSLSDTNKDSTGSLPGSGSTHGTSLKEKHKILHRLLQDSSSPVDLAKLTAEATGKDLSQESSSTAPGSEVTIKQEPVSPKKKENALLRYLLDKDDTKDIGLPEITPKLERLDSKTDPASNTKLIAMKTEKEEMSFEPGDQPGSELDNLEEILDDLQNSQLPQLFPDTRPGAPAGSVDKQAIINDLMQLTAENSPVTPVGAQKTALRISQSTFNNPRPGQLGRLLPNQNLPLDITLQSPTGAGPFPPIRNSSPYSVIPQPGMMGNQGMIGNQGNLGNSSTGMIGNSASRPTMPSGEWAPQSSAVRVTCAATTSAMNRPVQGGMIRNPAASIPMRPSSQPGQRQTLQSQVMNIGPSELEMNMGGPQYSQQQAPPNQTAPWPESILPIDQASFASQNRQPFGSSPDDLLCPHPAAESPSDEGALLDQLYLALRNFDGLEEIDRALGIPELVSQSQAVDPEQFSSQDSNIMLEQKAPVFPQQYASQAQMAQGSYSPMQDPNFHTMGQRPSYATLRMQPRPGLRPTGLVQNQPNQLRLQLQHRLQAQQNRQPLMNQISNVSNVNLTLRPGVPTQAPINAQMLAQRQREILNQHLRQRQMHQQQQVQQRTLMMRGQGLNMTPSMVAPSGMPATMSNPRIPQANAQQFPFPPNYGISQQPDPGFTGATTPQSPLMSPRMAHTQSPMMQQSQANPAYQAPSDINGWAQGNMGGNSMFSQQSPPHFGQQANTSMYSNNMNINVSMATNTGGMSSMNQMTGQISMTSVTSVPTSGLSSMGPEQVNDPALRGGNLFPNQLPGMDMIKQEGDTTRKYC

## Cc1cc(F)ccc1NCC(=O)Nc1ccc(Br)cc1C
[1]
  CC50: > 40 µM (active)

## COc1ccccc1-c1nc2ccccc2c(=O)n1NC(=O)c1cccs1
Aminopeptidase N
  IC50: 15.8 µM (active)
Aspartyl aminopeptidase
  IC50: > 73.5 µM (not active)
Procathepsin L
  IC50: > 59.6 µM (not active)

## Cc1cc(C)c(-n2c(C)cc(/C=C3/NC(=O)NC3=O)c2C)c(C)c1
[2]
  CC50: 11.2 µM (active)
cells
  IC50: 2.83 µM (active)

## COCCN(C(=O)CSc1nnc(-c2ccc(C)c(C)c2)o1)c1c(N)n(CC(C)C)c(=O)[nH]c1=O
[3]
  IC50: 14.8 µM (active)
cells
  IC50: 13.3 µM (active)

## CCN(CC)CCNC(=O)CSc1c2c(nc3cc(Cl)ccc13)CCCC2
Protein RecA
  EC50: 11.8 µM (active)
Vero [4]
  CC50: 18.8 µM (active)
[5]
  AC50: 25.5 µM (active)
[6]
  AC50: 241 µM (active)
Vero [7]
  CC50: > 25 µM (active)
[8]
  AC50: 14.9 µM (active)
[9]
  AC50: > 70 µM (inactive)

## CCc1ccc(NC(=O)C2CC=CCC2C(=O)O)cc1 (centres undefined)
Leucine aminopeptidase
  IC50: 3.48 µM (active)
Aspartyl aminopeptidase
  IC50: > 73.5 µM (not active)
Procathepsin L
  IC50: > 59.6 µM (not active)

## Cc1sc2nc3c(SC(C)C(=O)O)cc(C(=O)c4ccccc4O)cn3c(=O)c2c1C (centres undefined)
[10]
  EC50: 25.1 µM (not active)
Aminopeptidase N
  IC50: 57.8 µM (active)
[11]
  EC50: 14.7 µM (not active)
[12]
  EC50: 25.9 µM (not active)
[2]
  CC50: 42.7 µM (active)
cells
  IC50: 41.5 µM (active)

## CCOC(=O)c1c(NC(=O)C2C3C=CC(C3)C2C(=O)O)sc2c1CCC(CC)C2 (centres undefined)
Genome polyprotein
  IC50: 42.4 µM (active)
[3]
  IC50: 1.91 µM (active)
Leucine aminopeptidase
  IC50: 7.67 µM (active)
Aspartyl aminopeptidase
  IC50: > 73.5 µM (not active)
Procathepsin L
  IC50: > 59.6 µM (not active)
